Laboratory results taken from patent US20240299345A1, “GINKGOLIDE B AND ITS DERIVATIVES FOR INHIBITING AND/OR REVERSING AGING” (CHINA MEDICAL UNIVERSITY, priority 2023, published 2024).

Assays:
[1] = tested on: skeletal muscle of aged C57BL/6 mice; experiment: Muscle histology (fiber type, oil red O, Masson's trichrome, central nuclei) and vascular network in aged mice; type: in vivo, mouse; settings: GB 2 months
Method: Body composition was measured by Minispec LF50 TD-NMR (Bruker, MA, USA) based on nuclear magnetic resonance methods. Briefly, mice were anesthetized for the duration of the procedure by 3% isoflurane (Zoctis, London, UK) and placed in the scanning chamber in the prone position, with the limbs and tail stretched away from the body. The analysis would be conducted by default software per manufacturer's protocol. The vascular networks […] were quantified by in vivo micro-computed tomography (U-CT, Milabs, Netherlands). Briefly, mice intravenously received 150 μL ExiTron™ nano 12000 (#130-095-698, Miltonic Biotec GmbH, Bergisch Gladbach, Germany), and then mice were anesthetized with isoflurane before being positioned on the scanning chamber. After scanning, the blood vessels were analyzed by a curved multiplanar reconstruction algorithm by using Osirix software (Bernex, Switzerland).

[2] = tested on: circulating inflammatory cytokines and chemokines; experiment: Serum 40-plex cytokine/chemokine panel in aged mice; type: in vivo, mouse; settings: of 40 detected, GB 2 months
Description: Serum was collected by cardiac puncture upon sacrifice.

[3] = tested on: IL-6, IFN-γ; F4/80, CD86, CD206 cells; experiment: Tissue inflammatory cytokines (real-time PCR) and bone marrow macrophage IHC in aged mice; type: in vivo, mouse
Method: (§1) RNAs were purified by using the TRIzol® (#15596018, Invitrogen) and chloroform method (#C7559, Sigma-Aldrich) and reversed transcribed using High-Capacity cDNA Reverse Transcription Kit (#4368814, Applied Biosystems, Foster City, CA, USA). The quantitative RT-PCR was conducted with universal probe system (Roche Life Science, Indianapolis, IN, USA) by using a QuantStudio™ 7 Flex Real-Time PCR System (Applied Biosystems) and was normalized by the expression of GAPDH.

p16, p19, p57, γ-H2AX = experiment: Senescence markers in multiple tissues of aged mice (real-time PCR, IHC); type: in vivo, mouse
Method: as §1

GA muscle nuclei = experiment: Single-nucleus RNA sequencing of GA muscle; type: in vivo, mouse
Method: Single-nucleus isolation was performed as previously described 41. GA muscles were isolated from mice immediately following euthanasia. The muscles were minced and homogenized with homogenization buffer, 0.25M sucrose and 1% BSA diluted in Mg^2+-free, Ca^2+-free, RNase-free PBS (#AM9624, Invitrogen, Grand Island, NY, USA). The homogenates were incubated with 2.5% Triton-X100/RNase-free PBS at a 1:6 ratio for five minutes. After being filtered through a 100-um strainer, samples were centrifuged at 3000×g for 10 min at 4° C., resuspended in 2% BSA/RNase-free PBS, and then filtered through a 40-μm strainer again. Nuclei were labeled by DAPI with 0.2 U/μL RNase inhibitor (#N8080119, Thermo Fisher Scientific). Labeled nuclei were sorted by FACS Aria II Cell Sorter with 70 μm nozzle (BD Biosciences, San Jose, CA, USA) into 2% BSA/RNase-free PBS with RNase inhibitor. Isolated nuclei were observed by confocal fluorescent microscope (Leica TCS SP8, Wetzlar, Germany) to confirm integrity. To adjust the optimal concentration of nuclei for the 10X Chromium system, isolated nuclei were counted and diluted or concentrated by centrifugation at 250×g for 5 min at 4° C. Single-nucleus RNA-sequencing libraries were constructed by the Chromium Single Cell 3′ reagent kit v2 (10X Genomics, Pleasanton, CA, USA) per the manufacturer's protocol. Following the library preparation, the libraries were sequenced on the NovaSeq 6000 System (Illumina, San Diego, CA, USA) and the 10x Genomics cellranger count pipeline produced 6072 single-nucleus transcriptomes (2128, 2015 and 1929 transcriptomes for Young+Vehicle, Aged+Vehicle, and Aged+GB groups) with 25453, 27,741, and 34,120 reads per nuclei, and 1018, 923, and 1061 genes per nuclei for Young+Vehicle, Aged+Vehicle, and Aged+GB groups respectively.
The single-cell feature-barcode matrices from 10x Genomics cellranger count pipeline were imported into R version 4.1.3 and processed with Seurat 4.2.0. Next, ambient RNA was corrected by SoupX package43. […] Cell cycle genes were corrected for as described in Seurat's Cell-Cycle Scoring and Regression vignette. […] All remaining single-nuclei of each sample were then processed with dimension reduction and Louvain clustering as per Seurat's standard vignette. A combined Seurat object was also created following Seurat's integration protocol as described in Seurat's scRNA-seq integration using default parameters. Dimension reduction and clustering were also performed on the combined dataset as described above. Clusters were annotated using established cell type markers. […]

[4] = tested on: 20-month-old aged female C57BL/6 mice
Method: Animals were kept up to five per cage and were randomly assigned to control and experimental groups in all experiments. […] For the short-term experiment, 3-(young), 6-(adult) and 20-month-old (aged) female C57BL/6 mice were administered 12 mg/kg body weight GB (#G6910, Sigma-Aldrich, St. Louis, MO, USA) or vehicle daily by oral gavage for two months.
The noninvasive 31-item frailty index established by Whitehead et al. was used to evaluate frailty in mice (Whitehead, J. C. et al. A clinical frailty index in aging mice: comparisons with frailty index data in humans. J Gerontol A Biol Sci Med Sci 69, 621-632, doi:10.1093/gerona/glt136 (2014)). Whole assessments were conducted by blind investigators as possible. The scored items represent the aging-related deteriorations based on the criteria in clinical practice, consisting of the integument, musculoskeletal system, vestibulocochlear and auditory systems, ocular and nasal systems, digestive system, urogenital system, respiratory system, signs of discomfort, body weight and body surface temperature. Surface body temperature was determined by an infrared thermometer (Thermo Distance, Terraillon, Croissy-sur-seine, France), and grip strength was measured by the standard equipment described in the later section. The other subjective observations were scored by researchers. The scores 0, 0.5 and 1 indicated no sign of frailty, moderate defect and severe defect, respectively. For the body temperature, grip strength and body weight scoring, the average and standard deviation (STDEV) values were used as a baseline. A change within one STDEV is scored as a 0, a decreased change over one STDEV but lower than two STDEV was scored as a 0.5 and a change more than two STDEV was scored as a 1.

[5] = tested on: kidney, heart, spleen and liver in aged mice; settings: mouse, in vivo
Method: (§2) All animals were purchased from Laboratory Animal Services Centre, the Chinese University of Hong Kong, ad libitum fed the standard diet (#5V0f, LabDiet, St. Louis, MO, USA), and housed at specific-pathogen-free and humidity-controlled conditions under a 12 light: 12 dark photoperiod with temperature at 20-22° C. Animals were kept up to five per cage and were randomly assigned to control and experimental groups in all experiments. […] For the short-term experiment, 3-(young), 6-(adult) and 20-month-old (aged) female C57BL/6 mice were administered 12 mg/kg body weight GB (#G6910, Sigma-Aldrich, St. Louis, MO, USA) or vehicle daily by oral gavage for two months. […] GB was diluted to the appropriate concentration in 100 μL of sterile PBS (#10378016, Gibco, Waltham, MA, USA).
(§3) Tissue samples were harvested and embedded in paraffin or in OCT (#4583, Sakura Finetek USA, Torrance, CA, USA). For paraffin-embedded samples, 10 μm sections were deparaffinized by xylene and alcohol gradient treatment and were then hydrated by distilled water and processed for heat-induced antigen retrieval with antigen retrieval solution at 70° C. for 1.5 hours before staining. For OCT-embedded samples, 10 μm sections were hydrated by distilled water before staining. Hematoxylin and cosin staining (#MHS16 and #HT110116 Sigma-Aldrich), oil red O staining (#00625, Sigma-Aldrich), and Masson's trichrome staining (#HT15, Sigma-Aldrich) were used to assess the histology, lipid droplet, and collagen deposition. For immunohistochemical staining, antigen-retrieval samples were blocked with 5% bovine serum albumin (BSA) (#A9647, Sigma-Aldrich) for 1 hour at room temperature and incubated with primary antibodies overnight at 4° C., followed by a ready-to-use IHC/ICC Kit (#K405, BioVision, Milpitas, CA, USA) at room temperature. The samples were then suspended with double-distilled water and then stained with hematoxylin. For immunocytochemical staining, samples were blocked with 5% BSA (Sigma-Aldrich) for 1 hour at room temperature and incubated with primary antibodies overnight at 4° C., then washed with PBS for ten minutes, and then incubated with secondary antibody for 1 hour at room temperature, then washed with PBS three times for ten minutes.

[6] = tested on: kidney, heart, spleen and liver in aged mice; experiment: Organ pathology, blood chemistry and tolerability after 2 months of GB in mice
Method: as §2, §3

[7] = of 18 measurements increased by aging

`CC1C(=O)OC2C(O)C34C5CC(C(C)(C)C)C36C(OC(=O)C6O)OC4(C(=O)O5)C12O` (centres unmarked) [GB, Ginkgolide B] was tested, and the capillary density ([1]; CD31 staining of quadriceps, p=0.0492) was “dramatically enlarges”, the “aging-related changes in fiber-type switching” value ([1]; GA muscle, in particular type 1 and 2B myofibers) was “partially reversed” and the “number of central myonuclei in aged myofibers” value ([1]; p=0.0011) was “reduced”. For the same compound, the “collagen deposition in muscle” value ([1]; Masson's trichrome, GA muscle, p=0.0004) was “reduced”, the deep femoral artery ([1]; micro-CT, p=0.012) was “dramatically enlarges” and the intramuscular lipid infiltration ([1]; oil red O, GA muscle, p=0.01) was “reduced”. For the same compound, the “number of circulating proteins significantly altered” value [2] was 12, the “inflammatory cytokines IL-6 and IFN-γ in multiple tissues” value ([3]; GB 2 months, real-time PCR) was “downregulated” and the “CD86+ pro-inflammatory M1 macrophages” value ([3]; femur bone marrow IHC) was “decrease”. The “CD206+ anti-inflammatory M2 macrophages” value ([3]; femur bone marrow IHC) was “increased”, the “aging-related accumulation of bone marrow F4/80+ cells” value ([3]; femur bone marrow IHC) was “reversed” and the “expression of histone γ-H2AX” value (p16, p19, p57, γ-H2AX; IHC, multiple tissues of aged mice) was “reduced”. For the same compound, the “expression of p16, p19 and p57” value (p16, p19, p57, γ-H2AX; liver, kidney, lung, spleen, heart and muscle of aged mice, except p16 in spleen and p57 in lung) was “significantly inhibited”, the “reversal of aging-related changes in nucleus proportion” value (GA muscle nuclei; 8/14 nuclear types, GA muscle of aged mice) was 57% and the “expression levels of Runx1 in myonucleus and number of aging-elicited Runx1+ Type 2b myonuclei” value (GA muscle nuclei; GA muscle of aged mice) was “reduced”. The “aging-related changes in the numbers and proportion of myonuclei” value (GA muscle nuclei; covering all 5 myonucleus subclusters altered by aging) was “reversed”, the “number of Ptprc+ immune cells in skeletal muscle” value (GA muscle nuclei; particularly M2 and M2-like proliferating macrophages) was “increased” and the “reduction of aging-related frailty index score” value ([4]; aged mice, GB 2 months vs vehicle-aged, p<0.0001) was 63.1%. For the same compound, the “average frailty index score” value ([4]; aged mice, GB 2 months, mean±SD, vehicle-aged 0.43±0.13, young 0.01±0.01) was 0.16±0.05, the deterioration of frailty ([4]; mouse, in vivo) was “did not observe any deterioration” and the “number of aging-related frailty measurements modestly attenuated” value [4, 7] was 3. For the same compound, the “number of aging-related frailty measurements reversed” value [4, 7] was 13, the “circulating GOT, GPT and UA” value [5] was “reduction” and the “liver and spleen size” value [5] was “no effect”. For the same compound, the “collagen deposition in multiple organs” value ([6]; Masson's trichrome, aged mice) was “reduced”, the severe acute toxicity ([6]; adult, aged or OVX mice, none of the treated mice dying during the two months of GB administration) was “did not find severe acute toxicity” and the “compensatory hypertrophy of the kidney and heart” value ([6]; aged mice, GB 2 months) was “decreased”. For the same compound, the “aging-related compensatory hypertrophy of glomerulus” value ([6]; aged mice, histopathology, p<0.0001) was “reduced”, the “aging-related compensatory hypertrophy of cardiomyocytes” value ([6]; aged mice, histopathology, p=0.0018) was “reduced” and the “reduction of aging-related hepatic lipid accumulation” value ([6]; aged mice, p<0.0001) was 3.8 fold. For the same compound, the “decrease in white pulp and white pulp/red pulp ratio in aged spleen” value ([6]; aged mice, p<0.0001 and p=0.0143) was “ameliorated” and the “number of hepatic microgranulomas” value ([6]; aged mice, p=0.0031) was “decreased”.
